Laboratory results: US7109376B2, “Benzene and naphthylene derivatives and their use as UV screening agents” (DSM IP Assets B.V., priority 2001, dated 2006)

Columns and labels:
[1] = solvent Cétiol LC (Cocoyl cyprylate caprate)
[2] = irradiated in high dilution with a Hg-lamp 150 W (Heraeus)
[3] = solvent Crodamol DA (diisopropyladipate)

Row | SMILES | solubility in Cétiol LC [1] [%] | photostability [2] | solubility in Crodamol DA [3] [%] | mixability with conventional cosmetic solvents
1 | C=CCc1cc(C(C)(C)C)cc2nc(-c3ccc(-c4nc5cc(C(C)(C)C)cc(CC=C)c5o4)cc3)oc12 [Example 1, 1,4-bis-[2-(5-tert.-butyl-7-allyl-benzoxazol)-yl]-benzene] | 1.1 | photostable |  | 
2 | CC(C)(C)c1cc(CCC[Si](C)(C)O[Si](C)(C)C)c2oc(-c3ccc(-c4nc5cc(C(C)(C)C)cc(CCC[Si](C)(C)O[Si](C)(C)C)c5o4)cc3)nc2c1 [Example 2, 1,4-bis-[2-(5-tert.-butyl-7-{3-(1,1,3,3,3-pentamethyl-disiloxanyl)-1-propyl}-benzoxazol)-yl]-benzene] | 18 | photostable |  | 
3 | CC(Cc1cccc2nc(-c3ccc(-c4nc5cccc(CC(C)C[Si](C)(C)O[Si](C)(C)C)c5o4)cc3)oc12)C[Si](C)(C)O[Si](C)(C)C (stereo not shown) [Example 3, 1,4-bis-[2-(7-{3-(1,1,3,3,3-pentamethyl-disiloxanyl)-1-isobutyl}-benzoxazol)-yl]-benzene] |  | photostable | 5.03 | 
4 | CC(Cc1cc(C(C)(C)C)cc2nc(-c3ccc(-c4nc5cc(C(C)(C)C)cc(CC(C)C[Si](C)(O[Si](C)(C)C)O[Si](C)(C)C)c5o4)cc3)oc12)C[Si](C)(O[Si](C)(C)C)O[Si](C)(C)C (stereo not shown) [Example 5, 1,4-bis-[2-(5-tert.-butyl-7-{3-(1,3,3,3-tetramethyl-1-[(tri-methyl-silyl)-oxy]-disiloxanyl)-1-isobutyl}-benzoxazol)-yl]-benzene] | 12.3 | photostable |  | 
5 | CCCCC=CC(C)c1cc(C)cc2nc(-c3ccc(-c4nc5cc(C)cc(C(C)C=CCCCC)c5o4)cc3)oc12 (stereo not shown) [Example 6, 1,4-bis-[2-(5-methyl-7-oct-3-en-2-yl-benzoxazol)-yl]-benzene] |  | photostable | 1.33 | 
6 | CCCCC=CC(C)c1cc(C(C)(C)C)cc2nc(-c3ccc(-c4nc5cc(C(C)(C)C)cc(C(C)C=CCCCC)c5o4)cc3)oc12 (stereo not shown) [Example 8, 1,4-bis-[2-(5-tert.-butyl-7-oct-3-en-2-yl-benzoxazol)-yl]-benzene] |  | photostable |  | easily mixable
7 | CCCCC=CC(C)c1cccc2nc(-c3ccc(-c4nc5cccc(C(C)C=CCCCC)c5o4)cc3)oc12 (stereo not shown) [Example 9, 1,4-bis-[2-(7-oct-3-en-2-yl-benzoxazol)-yl]-benzene] | 1.02 | photostable |  | 
8 | CCCCCCC(C)c1cc(C(C)(C)C)cc2nc(-c3ccc(-c4nc5cc(C(C)(C)C)cc(C(C)CCCCCC)c5o4)cc3)oc12 (stereo not shown) [Example 11, 1,4-bis-[2-(5-tert.-butyl-7-oct-2-yl-benzoxazol)-yl]-benzene] |  | photostable |  | easily mixable
